According to the supplement of paper PMC2824726:
Where “and” joins values, the source holds several entries; their conditions need not be identical. Equal values may be shown once.

Tested on: MDA-MB-231
Experiment: shRNA barcode abundance ratio t_end/t_zero (depletion over 4 weeks of proliferation) (log2 ratio); higher = less depletion (weaker anti-proliferative effect of the shRNA)
Settings: time after t zero 28 days
Protocol: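 Pooled lentiviral negative-selection screen of 305 pGIPZ shRNAs (Open Biosystems V2LHS clones; the 21-nt half-hairpin sense stem is embedded in a mir-30 scaffold) in MDA-MB-231 breast carcinoma cells, infected at MOI 0.3 with 0.5 ug/ml puromycin selection. Barcode abundance was read on barcode tiling microarrays (six 25-nt probes per 60-nt barcode) at t_zero (5 days post-infection) and t_end (33 days; 28 days of culture after t_zero). Values are median-normalised t_end/t_zero signal ratios, averaged over the tiling probes that passed a 10-fold background filter, from three biological replicates.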

Sequence | shRNA barcode abundance ratio t end/t zero (log2)
GGCCCATACCTTCAAATATTA (targeted gene: NFKB1) | 0.381
GCTGAGGAGGCTCAAGTTAAA (targeted gene: TGFB1) | 0.277
GGACATCTAGTCACTTGTAAA (targeted gene: XIAP) | 0.00436
TCTCTTAAAGTTGATATCTTA (targeted gene: TNFAIP3) | 0.213
GCAAAGATCCTGATATCTTAT (targeted gene: RASA1) | 0.278
GGCAGGTATTTGACATATTAA (targeted gene: NFKB1) | 0.217
GCTAAGAGATTCGCCTTAAAT (targeted gene: SOCS3) | 0.308
CCAGCGATGAAGAATGTGGAA (targeted gene: CFLAR) | -0.0627
CCAACCACTTCATTCTTGAAA (targeted gene: IL10) | 0.022 and 0.0479
CCGAATCCGCATGACTCATAA (targeted gene: HDAC1) | 1.63
GGATTCTCAACACTTTGAATT (targeted gene: ANXA4) | 0.244
TCAATCAAAGGGAAACTTGAA (targeted gene: TPT1) | -0.105
CCCGTATGTGTCAACACCTAT (targeted gene: CRTAC1) | -0.136
CCTGCCCATTAGAGAAGTATT (targeted gene: VHL) | -0.221
CAACGGAACTTGTTTGCTCTT (targeted gene: SOCS3) | -0.536
CCGTGCTAACTGTGTGTACAT (targeted gene: PEA15) | -1.15
GAGGATTATGGCTAACAAGAA (targeted gene: MCL1) | 0.27
CGGGTTTCTCCGGCGTCATTA (targeted gene: PIM1) | 0.0461 and 0.0898
CCACCCTGAGCCATTATCTAA (targeted gene: PSEN1) | 0.146
CCAGACTCAGTTCACTGCAAA (targeted gene: MALT1) | -0.00481
GGAGTGCTCATTGTGAAGAAA (targeted gene: SORT1) | -0.0388
GAACTAGATCTGTTGCTTAAT (targeted gene: AVEN) | 0.231
TGTTAACAAATGTGGCAATTA (targeted gene: TPT1) | 0.164

Sequence | shRNA barcode abundance ratio t end/t zero (log2)
CCATATGTTCATTACATACAT (targeted gene: FANCF) | 0.17
GCTTGTTGTTTGAGAAGTTTA (targeted gene: BAG3) | 0.38
CCAGGAGAACAGTTGTTAAAT (targeted gene: HIPK3) | 0.228
GCTGCCAAACTTCAGATAATA (targeted gene: NT5C3) | 0.163
GGACTCTAGAATGTCCATATT (targeted gene: NUAK2) | 0.326
GCTGTGGTTAATTACACATTA (targeted gene: ACVR1) | -0.208
GCCCTGATTGTGTATATTCAT (targeted gene: BCL2) | 0.006
CCTTTGAAAGTGGGTGGAATT (targeted gene: TNFAIP3) | 0.0769
CCAGCTGTTTATGCATAGATA (targeted gene: CXCR4) | 1.87
GGAAATTCTTTCACTTCATTA (targeted gene: MCL1) | 0.208
GGCTACAGCCTCGATTTATAT (targeted gene: IGFBP3) | 0.0568
GCCAATATTGTGTTTGGATAT (targeted gene: MALT1) | 0.354
CCAAAGCATTTCATTGAGAAT (targeted gene: TOPORS) | -0.193
AGGCCTAGAGGTAACCAATAA (targeted gene: PRDX2) | -0.0855
GCACTTGCCTTTAAACTATGT (targeted gene: NFIA) | 0.384
CCCAGCAATAATTTAAACTTA (targeted gene: WRN) | 0.168
GCCGTTAACTAGGTTAATAAA (targeted gene: FANCF) | -0.0468
GGCACAACACTAATTACCATT (targeted gene: PROK2) | 0.0935
GGTGCCTTGAGGAATACAGAA (targeted gene: NT5C3) | 0.235
GGTGTCTTTACCAAACTTATT (targeted gene: HSPA9) | -0.751
CCTCCCTCTCAGAACCAATAA (targeted gene: DDAH2) | -0.269
CCAACATATCTCACTCTAGAA (targeted gene: BARD1) | 0.531
GCTCTTCATCAGGAGAAATAA (targeted gene: OPA1) | 0.0963

Sequence | shRNA barcode abundance ratio t end/t zero (log2)
CCACAGATGTTCATAGACAAT (targeted gene: NFKB1) | 0.547
GGTCTCCTTAGGGAACATAAA (targeted gene: ATM) | -0.27
CCTACTAACAATATCTGTTAA (targeted gene: SOCS2) | 0.0566
AAGCGTGCTCTCCGAAGATAA (targeted gene: SORT1) | 0.237
CCAGAAGAGCCTATTACATCT (targeted gene: SOCS3) | 0.25
CCTGTTGGTGTCTTTATTATT (targeted gene: CDH1) | 0.164
CCAGAGTAACTCTAGTCAGTT (targeted gene: NUP62) | -2.05
GGCAAATCCTTGTTTAACAAA (targeted gene: BIRC6) | 0.616
GCATCTTCTTCGGTGAAATAT (targeted gene: BNIP2) | -0.0165
TCACACTGGTTCTCAATGAAA (targeted gene: BAG1) | 0.198
GGCCAGAATATCATTGTCATA (targeted gene: RBKS) | -0.309
GGCATCAGATGAATTGTTAAT (targeted gene: IL3) | 0.161
GGCTACTATGACCAATAGAAG (targeted gene: BFAR) | 0.107
GGCCATTCATTTAATGTGCAT (targeted gene: HBXIP) | 0.497
CCATTGCCCATCGAGATTTAA (targeted gene: ACVR1) | 0.196
GGTATTCTCATCAAGAAACTT (targeted gene: BCL2A1) | 0.349
GCACCTAGTGTCCAGATTCAT (targeted gene: HDAC3) | 0.129
CCTGCAAACCTTATCCTCTAT (targeted gene: MAPK8IP2) | 0.442
GGCCTGACAATGGTACCTATT (targeted gene: HDAC3) | -1.93
CGCAAGAATCTGTTCCTAGTG (targeted gene: FAIM3) | -0.255
GCAGGTATTTGACATATTAAA (targeted gene: NFKB1) | 0.38
GCTGTGAGTTCTGATAGGAAT (targeted gene: XIAP) | -0.186
